# Assay results reported in patent US9018256B2, “Feed additive for animals of P-thymol, salt derivative or ester derivative thereof” (priority 2011, dated 2015).
# Where two headings read alike, the source gives them in different places.
# What was measured:
# [1] = tested on: clostridium perfringens; assay type: cell-based
# [2] = tested on: salmonella choleraesuis; experiment: In-vitro antibacterial activity, tube double dilution method; assay type: cell-based
# [3] = tested on: three-way cross weaned pigs; experiment: Growth promoting effect test on weaned pigs; assay type: in vivo, pig; settings: 100 ppm in feed, 30 days; for Total Feed Consumption / Total Weight Gain: 30 per group
# [4] = tested on: salmonella gallinarum; assay type: cell-based
# [5] = tested on: Chemy Valley ducks; experiment: Growth promoting effect test on ducks; assay type: in vivo, duck; settings: 100 ppm in feed, 1 to 46-day-old ducks; for Total Feed Consumption / Total Weight Gain: 100 per group
# [6] = tested on: rats; settings: rat, in vivo; cited from earlier work
# [7] = tested on: escherichia coli; experiment: In-vitro antibacterial activity, tube double dilution method; assay type: cell-based
# [8] = Changes in chicken complete formula feed during preservation (gas chromatography); settings: 25-30° C., initial 100 ppm
# [9] = tested on: salmonella bacillus; assay type: cell-based
# [10] = Volatility comparison under reduced-pressure drying; settings: for weight remained after reduced-pressure drying: initial weight 10.0 g
# [11] = tested on: Lingnan yellow big chicken; experiment: Comparison of chicken growth promoting effects of p-thymol, thymol and carvacrol; assay type: in vivo; settings: 100 ppm in feed, 1 to 21-day-old chickens; for Total Feed Consumption / Total Weight Gain: 50 per group
# [12] = tested on: Wistar rats; experiment: Rat oral LD50 measurement (improved Karber's method); assay type: in vivo
# [13] = tested on: staphylococcus aureus; experiment: In-vitro antibacterial activity, tube double dilution method; assay type: cell-based
# [14] = tested on: black carps; experiment: Application in aquatic feed (black carp growth test); assay type: in vivo; settings: for average weight gain improved compared with the control group / feed conversion rate (FCR) / feed conversion rate reduced compared with the control group / final weight / weight gain: 100 ppm in feed, black carps, 8 weeks
# [15] = clostridium perfringens CAU0591
# [16] = clostridium perfringens CAU0795
# [17] = clostridium perfringens CAU0855
# [18] = clostridium perfringens CAU0859
# [19] = clostridium perfringens HNAU160
# [20] = clostridium perfringens HNAU166
# [21] = salmonella choleraesuis CEC19940141
# [22] = salmonella choleraesuis CEC19940146
# [23] = rat, oral, preliminary experiment
smiles,measurement,setting,value
"Cc1ccc(C(C)C)cc1O [carvacrol, 2-methyl-5-isopropyl-phenol]",Inhibiting Activity (minimum bacteria inhibiting concentration),[1]; [15],500 µg/mL
same,Inhibiting Activity (minimum bacteria inhibiting concentration),[1]; [16],250 µg/mL
same,Inhibiting Activity (minimum bacteria inhibiting concentration),[1]; [17],500 µg/mL
same,Inhibiting Activity (minimum bacteria inhibiting concentration),[1]; [18],500 µg/mL
same,Inhibiting Activity (minimum bacteria inhibiting concentration),[1]; [19],500 µg/mL
same,Inhibiting Activity (minimum bacteria inhibiting concentration),[1]; [20],250 µg/mL
same,Inhibiting Activity (minimum bacteria inhibiting concentration),[2]; [21],500 µg/mL
same,Inhibiting Activity (minimum bacteria inhibiting concentration),[2]; [22],250 µg/mL
same,Feed Conversion Rate,[3],2.336
same,Survival Rate,[3],100%
same,feed conversion rate reduced compared with the control group,[3],0.085
same,relative weight gain rate improved compared with the control group,[3],4.69%
same,Total Feed Consumption,[3],798.1 kg
same,Total Weight Gain,[3],341.7 kg
same,Relative Weight Gain Rate,[3]; control = 100,104.69%
same,Inhibiting Activity (minimum bacteria inhibiting concentration),[4]; salmonella gallinarum CAU0205,250 µg/mL
same,Inhibiting Activity (minimum bacteria inhibiting concentration),[4]; salmonella gallinarum CAU0206,500 µg/mL
same,Inhibiting Activity (minimum bacteria inhibiting concentration),[4]; salmonella gallinarum QAU0399,500 µg/mL
same,Feed Conversion Rate,[5],2.739
same,Survival Rate,[5],100%
same,feed conversion rate reduced compared with the control group,[5],0.049
same,relative weight gain rate improved compared with the control group,[5],2.51%
same,Total Feed Consumption,[5],928.3 kg
same,Total Weight Gain,[5],338.9 kg
same,Relative Weight Gain Rate,[5]; control = 100,102.51%
same,oral median lethal dose (LD50) of rats,[6],810 mg/kg weight
same,Inhibiting Activity (minimum bacteria inhibiting concentration),[7]; escherichia coli CAU0020,250 µg/mL
same,Inhibiting Activity (minimum bacteria inhibiting concentration),[7]; escherichia coli CAU0053,500 µg/mL
same,Inhibiting Activity (minimum bacteria inhibiting concentration),[7]; escherichia coli CAU0147,250 µg/mL
same,Inhibiting Activity (minimum bacteria inhibiting concentration),[7]; escherichia coli CAU0159,250 µg/mL
same,Inhibiting Activity (minimum bacteria inhibiting concentration),[7]; escherichia coli CAU0195,500 µg/mL
same,concentration measured after extraction from the complete formula feed,[8]; 1 day,99.6 ppm
same,concentration measured after extraction from the complete formula feed,[8]; 15 days,87.7 ppm
same,concentration measured after extraction from the complete formula feed,[8]; 30 days,73.1 ppm
same,concentration measured after extraction from the complete formula feed,[8]; 45 days,58.5 ppm
same,concentration measured after extraction from the complete formula feed,[8]; 60 days,42.6 ppm
same,Inhibiting Activity (minimum bacteria inhibiting concentration),[9],250 µg/mL
same,weight remained after reduced-pressure drying,"[10]; 50° C., 1 hour",4.84 g
same,weight remained after reduced-pressure drying,"[10]; 70° C., 1 hour",0 g
same,weight remained after reduced-pressure drying,"[10]; 90° C., 1 hour",0 g
same,volatilization (in words),[10]; reduced-pressure drying within 1 hour at 70° C. and over,completely volatilized
same,Average Weight Gain,[11],332.9 g
same,Feed Conversion Rate,[11],1.761
same,Survival Rate,[11],100%
same,feed conversion rate reduced compared with the control group,[11],0.021
same,relative weight gain rate improved compared with the control group,[11],3.19%
same,Total Feed Consumption,[11],29.32 kg
same,Total Weight Gain,[11],16.65 kg
same,Relative Weight Gain Rate,[11]; control = 100,103.19%
same,Toxicity Judgment,[12]; rat oral LD50 grading,relative
same,LD50,"[12]; rat, oral, observed 7 days",6400 mg/kg weight
same,Dm (dose causing 100% death),[12]; [23],1800 mg/kg weight
same,Dn (dose causing 0% death),[12]; [23],400 mg/kg weight
same,Inhibiting Activity (minimum bacteria inhibiting concentration),[13]; s. aureus CAU0804,500 µg/mL
same,Inhibiting Activity (minimum bacteria inhibiting concentration),[13]; s. aureus CAU0810,250 µg/mL
same,Inhibiting Activity (minimum bacteria inhibiting concentration),[13]; s. aureus CAU0837,250 µg/mL
same,Inhibiting Activity (minimum bacteria inhibiting concentration),[13]; s. aureus CAU0866,250 µg/mL
same,Inhibiting Activity (minimum bacteria inhibiting concentration),[13]; s. aureus CAU0868,250 µg/mL
same,Inhibiting Activity (minimum bacteria inhibiting concentration),[13]; s. aureus CAU0869,250 µg/mL
same,Inhibiting Activity (minimum bacteria inhibiting concentration),[13]; s. aureus CAU0871,250 µg/mL
same,average weight gain improved compared with the control group,[14],3.52%
same,feed conversion rate (FCR),[14],1.45 ± 0.06
same,feed conversion rate reduced compared with the control group,[14],2.68%
same,final weight,[14],598.08 ± 27.11 g
same,weight gain,[14],138.0 ± 7.78%
same,survival rate (SR),[14]; in vivo,100%
"Cc1ccc(C(C)C)c(O)c1 [thymol, 5-methyl-2-isopropyl-phenol]",Inhibiting Activity (minimum bacteria inhibiting concentration),[1]; [15],250 µg/mL
same,Inhibiting Activity (minimum bacteria inhibiting concentration),[1]; [16],250 µg/mL
same,Inhibiting Activity (minimum bacteria inhibiting concentration),[1]; [17],250 µg/mL
same,Inhibiting Activity (minimum bacteria inhibiting concentration),[1]; [18],250 µg/mL
same,Inhibiting Activity (minimum bacteria inhibiting concentration),[1]; [19],500 µg/mL
same,Inhibiting Activity (minimum bacteria inhibiting concentration),[1]; [20],250 µg/mL
same,Inhibiting Activity (minimum bacteria inhibiting concentration),[2]; [21],250 µg/mL
same,Inhibiting Activity (minimum bacteria inhibiting concentration),[2]; [22],250 µg/mL
same,Feed Conversion Rate,[3],2.324
same,Survival Rate,[3],100%
same,feed conversion rate reduced compared with the control group,[3],0.097
same,Total Feed Consumption,[3],796.3 kg
same,Total Weight Gain,[3],342.6 kg
same,Inhibiting Activity (minimum bacteria inhibiting concentration),[4]; salmonella gallinarum CAU0205,500 µg/mL
same,Inhibiting Activity (minimum bacteria inhibiting concentration),[4]; salmonella gallinarum CAU0206,250 µg/mL
same,Inhibiting Activity (minimum bacteria inhibiting concentration),[4]; salmonella gallinarum QAU0399,500 µg/mL
same,Feed Conversion Rate,[5],2.726
same,Survival Rate,[5],100%
same,feed conversion rate reduced compared with the control group,[5],0.062
same,Total Feed Consumption,[5],940.7 kg
same,Total Weight Gain,[5],345.1 kg
same,Inhibiting Activity (minimum bacteria inhibiting concentration),[7]; escherichia coli CAU0020,250 µg/mL
same,Inhibiting Activity (minimum bacteria inhibiting concentration),[7]; escherichia coli CAU0053,250 µg/mL
same,Inhibiting Activity (minimum bacteria inhibiting concentration),[7]; escherichia coli CAU0147,250 µg/mL
same,Inhibiting Activity (minimum bacteria inhibiting concentration),[7]; escherichia coli CAU0159,250 µg/mL
same,Inhibiting Activity (minimum bacteria inhibiting concentration),[7]; escherichia coli CAU0195,250 µg/mL
same,concentration measured after extraction from the complete formula feed,[8]; 1 day,100.4 ppm
same,concentration measured after extraction from the complete formula feed,[8]; 15 days,90.2 ppm
same,concentration measured after extraction from the complete formula feed,[8]; 30 days,78.9 ppm
same,concentration measured after extraction from the complete formula feed,[8]; 45 days,63.7 ppm
same,concentration measured after extraction from the complete formula feed,[8]; 60 days,49.7 ppm
same,Inhibiting Activity (minimum bacteria inhibiting concentration),[9],250 µg/mL
same,weight remained after reduced-pressure drying,"[10]; 50° C., 1 hour",6.12 g
same,weight remained after reduced-pressure drying,"[10]; 70° C., 1 hour",1.02 g
same,weight remained after reduced-pressure drying,"[10]; 90° C., 1 hour",0 g
same,volatilized part,"[10]; reduced-pressure drying 70° C., 1 hour",89.8%
same,Average Weight Gain,[11],334.8 g
same,Feed Conversion Rate,[11],1.756
same,Survival Rate,[11],100%
same,feed conversion rate reduced compared with the control group,[11],0.026
same,Total Feed Consumption,[11],29.40 kg
same,Total Weight Gain,[11],16.74 kg
same,Inhibiting Activity (minimum bacteria inhibiting concentration),[13]; s. aureus CAU0804,500 µg/mL
same,Inhibiting Activity (minimum bacteria inhibiting concentration),[13]; s. aureus CAU0810,125 µg/mL
same,Inhibiting Activity (minimum bacteria inhibiting concentration),[13]; s. aureus CAU0837,250 µg/mL
same,Inhibiting Activity (minimum bacteria inhibiting concentration),[13]; s. aureus CAU0866,250 µg/mL
same,Inhibiting Activity (minimum bacteria inhibiting concentration),[13]; s. aureus CAU0868,250 µg/mL
same,Inhibiting Activity (minimum bacteria inhibiting concentration),[13]; s. aureus CAU0869,125 µg/mL
same,Inhibiting Activity (minimum bacteria inhibiting concentration),[13]; s. aureus CAU0871,250 µg/mL
same,average weight gain improved compared with the control group,[14],4.53%
same,feed conversion rate (FCR),[14],1.44 ± 0.08
same,feed conversion rate reduced compared with the control group,[14],3.36%
same,final weight,[14],601.58 ± 28.02 g
same,weight gain,[14],139.29 ± 7.37%
